In patent publication US20230151342A1, “ZINC FINGER DEGRADATION DOMAINS” (THE BROAD INSTITUTE, INC, priority 2020, published 2023):
Where no end group is shown, it is not given here.

What was measured:
[1] = test system: CAR protein abundance in CAR-Jurkat cells; assay: Jurkat CAR protein degradation (flow cytometry anti-Myc tag, western blot)
Description: CAR-Jurkat cells were treated with lenalidomide or vehicle control and then (FIG. 13B) analyzed by western blot for the specified targets or (FIG. 13C) analyzed by flow cytometry to quantify the CAR protein abundance normalized to vehicle control (anti-Myc tag). (FIG. 13D) CAR-Jurkat cells were co-cultured with K562-CD19 cells and lenalidomide or vehicle control and then analyzed by flow cytometry for the percentage of CD69+ cells. (FIG. 13E) The concentration of IL2 in supernatants from FIG. 13D was measured by ELISA. […] All experiments were performed in triplicate. Error bars indicate standard deviation.
Next, the kinetics of CAR depletion was examined after the addition of lenalidomide. […] We also examined the dynamics of CAR re-synthesis after washout of lenalidomide.
Normalized CAR expression was calculated via subtraction of the MFI of unstained cells and normalization to the signal intensity of vehicle control-treated cells. […] Luciferase-tagged CAR luminescence was measured with an EnVision plate reader (PerkinElmer).

NALM6 target cells [2] = assay: Cellular cytotoxicity assay of primary human CAR-T cells; format: cell-based; conditions: 100 nM or 1000 nM lenalidomide; primary human CAR T cells, NALM6
From the text: (§1) To evaluate whether effector functions of primary T cells could be gated by lenalidomide, primary sCAR 913 T cells were generated. As the two split CAR components are delivered by separate lentivectors, this gave the ability to use FACS to purify cells expressing neither, one, or both components.
(§2) Thalidomide analogs control degradable CAR T cell activation and effector functions in vitro and in vivo. To test whether degradable CAR T cell activation could be controlled with lenalidomide, 19BBz, 19BBz-dIKZF3, 19BBz-d91.3, and 19BBz-d91.3* Jurkat CAR T cell lines were co-cultured with K562 cells engineered to express the target antigen CD19 (K562-CD19) and 11 lenalidomide concentrations or vehicle control. […] To evaluate whether effector functions of degradable CAR T cells could be controlled with lenalidomide, primary human CAR T cells were generated and cytotoxicity assays performed comparing the conventional 19BBz CAR to the degradable 19BBz-d91.3 CAR in vitro. […] Then cytokine production was analyzed in response to antigen stimulation.
(§3) Primary human CAR-T effector cells were co-cultured with NALM6 target cells engineered to express click beetle green luciferase at the indicated ratios for 16 hours. Luciferase activity was measured with a Synergy Neo2 luminescence microplate reader (Biotek). Cell culture supernatant from these experiments was analyzed for soluble cytokines (Luminex).

K562-CD19 cells = assay: Jurkat CAR functional assay: CD69 expression after co-culture with K562-CD19 cells; format: cell-based; conditions: higher concentrations of lenalidomide; overnight co-culture with K562-CD19
From the text: FIG. 12A-12D—ON-switch split CARs only function in the presence of lenalidomide. (FIG. 12A) Schematic of split CAR constructs. Each split CAR is composed of the indicated antigen-binding part A and the ITAM-containing part B. The lenalidomide-induced dimerization module is encoded by zinc fingers from IKZF3 or the engineered 913 zinc finger and a fragment of CRBN (CRBNΔ3). The intracellular domains of each split CAR part A is protected from CRL4^CRBN ubiquitination by K>R “K0” substitutions. The control second generation CAR FMC63-CD28-CD3z was also used. sCAR, split CAR. […] (FIG. 12C) Primary T cells were infected with lentiviruses encoding parts A and B of split CAR 913. Untransduced cells and cells expressing components A only, B only, and both A+B were purified by FACS. Cytotoxic activity of each sorted cell population was measured after overnight co-culture with NALM6 target cells and lenalidomide or vehicle control at the indicated effector:target ratios. The maximum plasma concentration for once daily 25 mg lenalidomide in multiple myeloma patients is indicated. (FIG. 12D) Scatterplots showing the production of cytokines after co-culture (1:1 CAR T:NALM6 ratio) in the presence of 1000 nM lenalidomide versus vehicle control. Experiments were performed in triplicate and error bars indicate standard deviation.
FIG. 24 Validation of lenalidomide-OFF-switch control of CAR T cell activation, as assessed by expression of the early activation marker CD69, in Jurkat T cells expressing various super-degron tagged chimeric antigen receptors. Regulation of CAR T cell activation with the indicated super-degrons, in comparison to the previously described degron d913. […]
Thalidomide analogs control degradable CAR T cell activation and effector functions in vitro and in vivo. […] Then cytokine production was analyzed in response to antigen stimulation.

[3] = test system: JeKo-1 mantle cell lymphoma cells; assay: In vivo tumor control model, mantle cell lymphoma xenograft; conditions: NSG mice engrafted with JeKo-1 cells; no drug
Description: (§4) FIG. 14A-14I—OFF-switch degradable CARs can be transiently depleted with pomalidomide and enforce tumor control in vivo. (FIG. 14A) Schematic of luciferase-tagged CAR constructs. […] (FIG. 14C) Summary of BLI 24 hours before, 6 hours after, and 24 hours after pomalidomide. Comparing the d91.3 and d91.3* CARs across each timepoint using two-tailed t-tests yielded p-values of 0.35, 0.003, and 0.14, respectively. (FIG. 14D) BLI representing CAR abundance over time. (FIG. 14E) Experimental design for in vivo tumor control model: NSG mice were injected intravenously with 1e6 GFP+/luciferase+ JeKo-1 tumor cells. At day 0, mice were randomly assigned on the basis of tumor burden to receive 1e6 control T cells (UTD), 19BBz, or 19BBz-d91.3. (FIG. 14F) Average luminescence of whole mice in the 3 groups over time. […] The percentage of JeKo-1 cells (FIG. 14H) and human T cell (FIG. 14I) among mononuclear cells in the bone marrow or spleen at day 35.
Subtle sequence changes to chimeric antigen receptors have been associated with intended and unintended consequences for CAR T cell efficacy and toxicity in clinical trials as well as pre-clinical models (23, 33, 34). Therefore, we determined whether addition of the zinc finger super-degron tag impacts CAR T cell activity in a mantle cell lymphoma xenograft model. We engrafted NSG mice with CD19+ luciferase+ JeKo-1 mantle cell lymphoma cells. […]

NALM6 target cells [4] = assay: Cytokine production in CAR T:NALM6 co-culture supernatant (Luminex); format: cell-based; conditions: 100 nM lenalidomide; 9:1 CAR T:NALM6
From the text: as §1, §2, §3

2FKBP (N+L) Cas9 = assay: dTAG-induced degradation of FKBP-Cas9 (eGFP disruption, western blotting, degradation kinetics); format: cell-based; conditions: multiple assays
Description: Degraders targeting variant Cas9 proteins is explored in the following example. SpCas9 variants were prepared and transfected into several cell lines.
Control of CRIPSR-Cas degradation can control editing outcomes.

[5] = 25 mg per day dosing; multiple myeloma patients; cited from earlier work
[6] = test system: NALM6 cells engrafted in NSG mice; assay: In vivo CAR T cell cytokine release model; conditions: day 5
From the text: To evaluate whether degradable CAR T cell cytokine release could be controlled in vivo, a high-level tumor engraftment model was used to provoke CAR T cell cytokine release. NALM6 cells were engrafted in non-obese diabetic scid gamma (NSG) mice one week before injection of conventional 19BBz CAR T cells, degradable 19BBz-d91.3 CAR T cells, or untransduced control T cells. On days 3-5 after T cell transfer, mice were either left untreated, treated daily, or treated twice daily with pomalidomide, which was used for in vivo experiments because it has a longer in vivo half-life than lenalidomide. On the afternoon of day 5, serum plasma concentrations were measured for a panel of human T cell cytokines (FIG. 14C). IFN-gamma levels were reduced four-fold (p=0.04) with daily and six-fold (p=0.01) with twice-daily pomalidomide treatment. […] Thus, pomalidomide can be used to limit cytokine release in vivo, the major driver of CAR T cell hyperactivation toxicities.

[7] = test system: Jurkat cells expressing 19BBz-FLuc-d91.3 in NSG mice; assay: In vivo CAR depletion model (bioluminescent imaging of luciferase-tagged CAR)
Description: as §4
As expected, after exposure to lenalidomide, we observed a dose-dependent decrease in luminescence from Jurkat cells expressing degradable but not control luciferase-tagged CARs (FIG. 14A). Applicants then transplanted NSG mice with the engineered T cells. After establishing detectable engraftment by luminescence imaging, we administered a single 10 mg/kg oral pomalidomide dose the following day, and measured luminescence. […]

Molecule: 19BBz-d91.3: degradable anti-CD19 CAR (4-1BB, CD3z) with d91.3 super-degron tag (FNVLMVHKRSHTGERPLQCEICGFTCRQKGNLLRHIKLHTGEKPFKCHLCNYACQRRDAL; not fully specified; cysteine pairing not given here)
- Half-maximal depletion of the degradable CAR after addition of lenalidomide ([1]; Jurkat cells): ~20 min
- Half-maximal recovery of expression after washout of lenalidomide ([1]; Jurkat cells): ~3.6 h
- fold lower lenalidomide concentration for depletion than endogenous IKZF3 ([1]; western blot, Jurkat cells): approximately 100 fold
- lenalidomide concentration for depletion as fraction of that required to deplete endogenous IKZF3 ([1]; western blot, Jurkat cells): approximately 1/100
- target cell killing (specific lysis) (NALM6 target cells [2]): not detected above background
- inhibition of CD69 early activation marker expression (K562-CD19 cells): more completely
- survival, tumor burden (BLI, spleen, bone marrow), T cell persistence versus conventional 19BBz CAR T cells [3]: no significant differences
- secretion of cytokines reflective of T cell activation (NALM6 target cells [4]): reduced the secretion of all evaluated cytokines

Molecule: CC[C@H](C(=O)N1CCCC[C@H]1C(=O)O[C@H](CCc1ccc(OC)c(OC)c1)c1ccccc1OCC(=O)NCCCCCCCCNc1ccc2c(c1)C(=O)N(C1CCC(=O)NC1=O)C2=O)c1cc(OC)c(OC)c(OC)c1 (stereo partly drawn) [dTAG]
- concentration sufficient for complete degradation of 2FKBP (N+L) Cas9 (2FKBP (N+L) Cas9): 1 µM

Molecule: Nc1cccc2c1CN(C1CCC(=O)NC1=O)C2=O (stereo not drawn) [lenalidomide, reference compound]
- t½ of CAR depletion upon addition of lenalidomide ([1]; CAR-Jurkat cells, 95% CI 0.29-0.38): 0.33 h
- t½ of CAR re-expression following lenalidomide treatment and drug washout ([1]; CAR-Jurkat cells, 95% CI 1.88-13.6): 3.57 h
- maximum plasma concentration [5]: 1.9 µM

Molecule: Nc1cccc2c1C(=O)N(C1CCC(=O)NC1=O)C2=O (stereo not drawn) [pomalidomide]
- reduction of serum IFN-gamma levels ([6]; daily 30 mg/kg pomalidomide oral gavage days 3-5, p=0.04): four-fold
- reduction of serum IL-2 levels ([6]; daily pomalidomide, p=0.05): four-fold
- reduction of serum IFN-gamma levels ([6]; twice-daily 30 mg/kg pomalidomide oral gavage days 3-5, p=0.01): six-fold
- reduction of serum IL-2 levels ([6]; twice-daily pomalidomide, p=0.06): not significantly reduced
- luminescence of degradable CAR after 24 hours ([7]; 24 hours after single 10 mg/kg oral pomalidomide dose): recovered to levels similar to that of the control CAR
- reduction of luminescence from the degradable CAR versus pre-treatment ([7]; six hours after single 10 mg/kg oral pomalidomide dose, p=0.003): 5 fold
